“And” between values parts separate entries of the source, which are not always exact repeats. Identical values can stand only once.
Key:
Conditions in all cases: incubation time: 72 h
[1] = test system: DU-4475; assay: normalised viability (% of control), CellTiter-Blue; higher = more viable cells (about 100 = DMSO control)
Protocol: (§1)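 DSRT, CellTiter-Blue viability, 72 h incubation. Signal is normalised to DMSO and benzethonium chloride controls. Value is the normalised response at dose 9.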

[2] = test system: HDQ-P1; assay: as above
Protocol: as §1

[3] = test system: CAL-85-1; assay: as above
Protocol: as §1

[4] = test system: CAL-148; assay: as above
Protocol: as §1

[5] = test system: MDA-MB-453; assay: as above
Protocol: as §1

[6] = test system: CAL-51; assay: as above
Protocol: as §1

[7] = test system: SK-BR-3; assay: normalised response (% of control), CellTiter-Glo; higher = more viable cells (100 = DMSO, 0 = benzethonium chloride kill control)
Method in brief: (§2)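 Compound was dispensed into 384-well plates at 5 concentrations in 10-fold steps spanning a 10,000-fold range specific to that compound. Breast cancer cell lines were added as 20 µl suspension and left for 72 h before CellTox Green fluorescence (485/520 nm) and then CellTiter-Glo luminescence, read after 10 min at room temperature. Each reported value is the normalised signal at one concentration, with 0.1 % DMSO set at 100 and a positive kill control at 0 on each plate.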

[8] = test system: DU-4475; assay: as above
Method in brief: as §2

[9] = test system: MDA-MB-468; assay: as above
Method in brief: as §2

[10] = test system: MDA-MB-436; assay: as above
Method in brief: as §2

[11] = test system: MDA-MB-231; assay: as above
Method in brief: as §2

[12] = test system: HCC1143; assay: as above
Method in brief: as §2

[13] = test system: CAL-85-1; assay: as above
Method in brief: as §2

[14] = test system: HCC1937; assay: as above
Method in brief: as §2

[15] = test system: HCC1599; assay: as above
Method in brief: as §2

[16] = test system: CAL-120; assay: as above
Method in brief: as §2

SMILES | normalised viability [1] | normalised viability [2] | normalised viability [3] | normalised viability [4] | normalised viability [5] | normalised viability [6] | normalised response [7] [%] | normalised response [8] [%] | normalised response [9] [%] | normalised response [10] [%] | normalised response [11] [%] | normalised response [12] [%] | normalised response [13] [%] | normalised response [14] [%] | normalised response [15] [%] | normalised response [16] [%]
CN1CCN(c2nc(C3=C(c4c[nH]c5ccccc45)C(=O)NC3=O)c3ccccc3n2)CC1 [Sotrastaurin] (10000 nM) | 77.1% | 124% | 124% | 127% | 75.6% | 108% | 67.5 | 76.4 | 78.6 | 107 | 107 | 94.2 | 112 | 118 | 82.8 | 82.7
COc1cc2c(Oc3ccc(NC(=O)C4(C(=O)Nc5ccc(F)cc5)CC4)cc3F)ccnc2cc1OCCCN1CCOCC1 [Foretinib] (1000 nM) | 29.4% | 45.4% | 66.8% | 25.8% | 51.8% | 24.8% | 98 | 80.8 | 34.1 | 73.3 | 60.2 | 69.2 | 90.3 | 72.5 | 104 | 68
CO[C@H](C(=O)[C@@H](O)[C@@H](C)O)[C@@H]1Cc2cc3cc(O[C@H]4C[C@@H](O[C@@H]5C[C@@H](O)[C@H](O)[C@@H](C)O5)[C@H](O)[C@@H](C)O4)c(C)c(O)c3c(O)c2C(=O)[C@H]1O[C@H]1C[C@@H](O[C@@H]2C[C@@H](O)[C@@H](O[C@@H]3C[C@](C)(O)[C@H](O)[C@@H](C)O3)[C@@H](C)O2)[C@H](O)[C@@H](C)O1 [Plicamycin] (10000 nM) | 2.44% and 0.15% | 22.3% and 16% | 4.34% and 2.26% | 7.52% and 8.68% | 6.38% and 4.39% | 3.24% and 3.4% | 10.1 | 1.22 | 4.44 | 22.5 | 7.32 | 6.57 | 9.87 | 21 | 4.89 | 27
C[C@@H]1C[C@H]2[C@@H]3CCC4=CC(=O)C=C[C@]4(C)[C@@]3(F)[C@@H](O)C[C@]2(C)[C@@]1(O)C(=O)CO [Dexamethasone] (10000 nM) | 104% | 125% | 105% | 109% | 75.3% | 97.9% | 86.9 | 101 | 95.2 | 103 | 149 | 99.6 | 124 | 98.4 | 83.5 | 70.3
CO[C@H]1C[C@@H]2CC[C@@H](C)[C@@](O)(O2)C(=O)C(=O)N2CCCC[C@H]2C(=O)O[C@H]([C@H](C)C[C@@H]2CC[C@@H](O)[C@H](OC)C2)CC(=O)[C@H](C)/C=C(\C)[C@@H](O)[C@@H](OC)C(=O)[C@H](C)C[C@H](C)/C=C/C=C/C=C/1C [Sirolimus] (100 nM) |  |  |  |  |  |  | 57.4 | 72.8 | 53.4 | 73.9 | 81.2 | 62.4 | 60.5 | 66.9 | 95.8 | 64.5
Cn1nnc2c(C(N)=O)ncn2c1=O [Temozolomide] (10000 nM) | 116% | 31.3% | 107% | 116% | 100% | 87.8% | 93.9 | 91.1 | 99.1 | 98 | 91.2 | 95.1 | 99.2 | 91.6 | 108 | 95.2
CCCCCOC(=O)Nc1nc(=O)n([C@@H]2O[C@H](C)[C@@H](O)[C@H]2O)cc1F [Capecitabine] (10000 nM) | 88.5% and 90.4% | 105% and 87.3% |  | 75.5% and 97.8% |  | 88.9% and 91.6% | 74.5 | 90.7 | 104 | 78.6 | 100 | 92.8 | 56 | 107 | 90.4 | 98.5
NC(=O)c1cccc2cn(-c3ccc([C@@H]4CCCNC4)cc3)nc12 [MK-4827] (10000 nM) | 32.7% | 94% | 73.2% | 59.2% | 63.2% | 40.7% | 73.3 | 69.3 | 45.8 | 68.9 | 87.4 | 87.3 | 81.8 | 101 | 91.4 | 93.2
CC(C)C[C@H](NC(=O)[C@H](CCc1ccccc1)NC(=O)CN1CCOCC1)C(=O)N[C@@H](Cc1ccccc1)C(=O)N[C@@H](CC(C)C)C(=O)[C@@]1(C)CO1 [Carfilzomib] (1000 nM) | 2.97% | 0.68% | 2.67% | 2.83% | 12.3% | 1.6% | 2.94 | 7.95 | 1.29 | 2.1 | 0.28 | 5.78 | 1.03 | 2.47 | 8.99 | 1.88
O=C(O)CC[C@H]1CC[C@@](c2cc(F)ccc2F)(S(=O)(=O)c2ccc(Cl)cc2)CC1 [MK-0752] (1000 nM) | 110% | 126% | 104% | 119% | 117% | 100% | 117 | 102 | 94 | 105 | 97 | 103 | 98.1 | 95.1 | 89 | 105
CC(C)C(=O)Nc1ccc([N+](=O)[O-])c(C(F)(F)F)c1 [Flutamide] (10000 nM) | 87.4% | 124% | 84.8% | 106% | 91.7% | 98.3% | 105 | 97.7 | 93.9 | 98.4 | 93.3 | 95 | 90.1 | 92.7 | 90 | 104
Cc1cc2c(F)c(Oc3ncnn4cc(OC[C@@H](C)O)c(C)c34)ccc2[nH]1 [Brivanib] (1000 nM) | 107% | 117% | 86.9% | 86.8% | 99.1% | 101% | 113 | 103 | 107 | 112 | 104 | 100 | 93.4 | 95.1 | 104 | 112
C[C@]12C=CC(=O)C=C1CC[C@@H]1[C@@H]2C(=O)C[C@@]2(C)[C@H]1CC[C@]2(O)C(=O)CO [Prednisone] (10000 nM) | 99.3% | 122% | 103% | 103% | 88% | 101% | 107 | 107 | 104 | 98.2 | 100 | 103 | 98.6 | 95.4 | 102 | 49
CC/C(=C(\c1ccccc1)c1ccc(OCCN(C)C)cc1)c1ccccc1 [Tamoxifen] (10000 nM) | 108% | 78.5% | 102% | 120% | 17.4% | 90.2% | 53.4 | 85.7 | 77 | 86.9 | 60.8 | 95.7 | 81.6 | 51.8 | 73 | 90
Cc1c(N)nc([C@H](CC(N)=O)NC[C@H](N)C(N)=O)nc1C(=O)N[C@H](C(=O)N[C@H](C)[C@@H](O)[C@H](C)C(=O)N[C@H](C(=O)NCCc1nc(-c2nc(C(=O)NCCC[S+](C)C)cs2)cs1)[C@@H](C)O)[C@@H](OC1OC(CO)C(O)C(O)C1OC1OC(CO)C(O)C(OC(N)=O)C1O)c1cnc[nH]1 (some centres not stated) [Bleomycin] (10000 nM) | 98.7% | 64.7% | 96.9% | 82.8% | 94.2% | 51.7% | 67.4 | 78.9 | 48.8 | 39.1 | 74.8 | 48.5 | 64.3 | 45.8 | 88.7 | 80.9
O=NN(CCCl)C(=O)NC1CCCCC1 [Lomustine] (10000 nM) | 91.5% | 111% | 77.4% | 99.1% | 47.5% | 104% | 101 | 99.7 | 101 | 105 | 95.9 | 96.2 | 99.9 | 99 | 104 | 98.5
CCN(CC)CCOc1ccc(C(=C(Cl)c2ccccc2)c2ccccc2)cc1 [Clomifene] (10000 nM) | 48.2% | 38.8% | 42.8% | 93.4% | 7.39% | 84.7% | 27.5 | 44.1 | 65 | 87.6 | 4.7 | 95.4 | 44.9 | 10.1 | 4.3 | 90.2
Nc1nc(Cl)nc2c1ncn2[C@@H]1O[C@H](CO)[C@@H](O)[C@@H]1F [Clofarabine] (10000 nM) | 14% | 91.7% | 51.2% | 35.5% | 41.2% | 12.4% | 36.8 | 49.3 | 16.4 | 21.4 | 73 | 40.3 | 35.4 | 84.2 | 29.1 | 69.8
CC[C@@H]1C(=O)N(C)c2cnc(Nc3ccc(C(=O)N[C@H]4CC[C@H](N5CCN(CC6CC6)CC5)CC4)cc3OC)nc2N1C(C)C [Volasertib] (1000 nM) | 35.1% | 87.8% | 61.5% | 31.4% | 30.7% | 7.23% | 27.2 | 66.2 | 48 | 65.6 | 73 | 41.3 | 48.6 | 66.8 | 28.3 | 49.1
NC(=O)NO [Hydroxyurea] (100000 nM) | 121% | 123% | 90% | 119% | 91.5% | 100% | 110 | 102 | 102 | 103 | 98.5 | 104 | 101 | 95 | 96.4 | 96.9
